Test results published in publication PMC11678906, “Evaluation of In Vitro Inhibition of β-Hematin Formation: A Step Towards a Comprehensive Understanding of the Mechanism of Action of New Arylamino Alcohols” (Microorganisms, 2024).
Where two headings read alike, the source gives them in different places.

What was measured:
β-hematin formation = assay: Inhibition of β-hematin formation; format: biochemical; details: for Inhibition (%) of β-hematin formation at 2 mM: 24 h at 37 °C, versus negative control, mean ± SD of three experiments; for IC50: concentration range 0–2 mM, determined graphically
Experimental: Briefly, 100 μL of a fresh 6.5 mM solution of hemin (Sigma-Aldrich, SaintQuentin Fallavier, France) dissolved in 0.2 M NaOH was mixed with 100 μL of 3 M sodium acetate, 25 μL of 17.4 M acetic acid and 25 μL of the tested drug or controls (water and MeOH/DMSO). Magnetic stirring of the solution was used to avoid sedimentation. After 24 h incubation at 37 °C under shaking, the supernatant resulting from centrifugation for 15 min at 3300× g was discarded. The pellet was washed twice with 200 μL DMSO. After a final wash with water, the pellet was dissolved in 200 μL with 0.1 M NaOH. After a further 1:30 dilution, absorption at 405 nm was read using a microplate photometer (Multiskan® EX, Thermo Scientific, Waltham, MA, USA). CQ, MQ, ENP (considered as positive controls), water and MeOH/DMSO (considered as negative controls) were included in each experiment. […] Statistical significance was defined as a value of p ≤ 0.05.

[1] = tested on: Plasmodium falciparum W2 strain; set-up: method as in earlier work; details: SYBR Green I, CQ-resistant strain; previously determined for 2a-b, 3a-b and reference molecules; read-out: IC50 PfW2; cited from earlier work
[2] = tested on: Plasmodium falciparum 3D7 strain; set-up: method as in earlier work; details: SYBR Green I, strain with decreased susceptibility to MQ; previously determined for 2a-b, 3a-b and reference molecules; read-out: IC50 Pf3D7; cited from earlier work
[3] = In vitro cytotoxicity, MTT assay on HepG2; format: cell-based, human; details: human, HepG2 cells; MTT, 72 h incubation; mean ± SD of three experiments
Experimental: (§1) Briefly, in 96-well plates, 100 µL of a cell culture adjusted to 25,000 cells/mL was dispensed and the plates were incubated at 37 °C in a humidified 5% CO2 atmosphere for 24 h to allow the cells to adhere to the bottom of the wells. After microscopic verification of the adherent cells, the culture medium was removed and replaced with 100 μL of medium with the compounds at various concentrations dissolved in DMSO (final concentration less than 0.5% v/v), and the plates were incubated for 72 h at 37 °C. Controls were DMSO in medium (0.5% v/v) without compound as blank. Then, the supernatant from each well was removed prior to the addition of 100 µL of 3-(4,5-dimethyl-2-thiazolyl)-2,5-diphenyl-2H-tetrazolium bromide (MTT) solution (0.5 mg/mL in culture medium) per well. After 2 h of incubation, the supernatant from each well was removed and 100 µL of DMSO was added to dissolve the resulting blue formazan crystals accumulated at the bottom of the wells. The plates were incubated for 5 min at 37 °C in a humidified 5% CO2 atmosphere. Then, the wells were homogenized by shaking the plates for 10 min with a microplate shaker. The absorbance was read using the Tecan’s Sunrise™ absorbance microplate reader at 570 nm with 630 nm as the reference wavelength. […] Selectivity index (SI) was calculated and defined as the ratio between CC50 values on HepG2 and IC50.

HepG2 cell line = assay: In vitro cytotoxicity, MTT assay on HepG2; format: cell-based, human; details: for Selectivity Index HepG2/3D7: CC50 on HepG2 / IC50 against Pf3D7; for SI times higher than that of parental drug MQ: versus MQ
Experimental: as §1

Plasmodium falciparum = tested on: Plasmodium falciparum; set-up: method as in PMID 8513873; details: Figure 1, (S,R) vs (R,S) MQ, (+)- vs (-)-ENP; cited from earlier work
PfD6 = tested on: PfD6; set-up: method as in PMID 8513873; details: Figure 1; cited from earlier work
PfW2 = tested on: PfW2; set-up: method as in PMID 8513873; details: Figure 1; cited from earlier work
hemozoin formation = details: according to different studies; cited from earlier work
[4] = tested on: Plasmodium falciparum W2 strain; assay: In vitro antimalarial activity, SYBR Green I fluorescence-based method, PfW2; format: cell-based; details: for Eudysmic Ratio PfW2: ratio of IC50s of the enantiomer pair, eutomer configuration in parentheses; for IC50: Plasmodium falciparum, W2, SYBR Green I, 48 h incubation, CQ-resistant strain, 1a-b re-assayed here, mean ± SD of three experiments
From the text: (§2) IC50s, corresponding to in vitro antimalarial activity against PfW2 and Pf3D7, was previously determined for compounds 2a-b, 3a-b and reference molecules using the SYBR Green I fluorescence-based method. As compounds 1a-b were previously screened using the hypoxanthine-tritied method, they were here re-assayed with the SYBR Green I fluorescence-based method described elsewhere for comparison with the other two Series (2 and 3) and reference molecules. When possible, eudysmic ratios were calculated. The SYBR green I fluorescence-based method is detailed below.
(§3) Compounds were dissolved in DMSO and then diluted in sterile water in order to obtain a range of concentrations from 40 nM to […] for the first screening against culture-adapted Plasmodium falciparum reference strains 3D7 and W2. […] These two strains were obtained from the collection of the National Museum of Natural History (Paris, France). The parasites were cultivated in RPMI medium (Sigma-Aldrich, Saint Quentin Fallavier, France) supplemented with 0.5% Albumax I (Life Technologies Corporation, Paisley, UK), hypoxanthine (Sigma-Aldrich, Saint Quentin Fallavier, France) and gentamicin (Sigma-Aldrich, Saint Quentin Fallavier, France) with human erythrocytes and were incubated at 37 °C with 5% CO2 [26]. The P. falciparum drug susceptibility test was carried out in 96-well flat-bottomed sterile plates in a final volume of 250 μL. After a 48 h incubation period with the drugs, quantities of DNA in treated and control cultures of parasites in human erythrocytes were quantified using the SYBR Green I (Sigma-Aldrich, Saint Quentin Fallavier, France) fluorescence-based method. Briefly, after incubation, the plates were frozen at −20 °C until use. The plates were then thawed for 2 h at room temperature, and 100 μL of each homogenized culture was transferred to a well of a 96-well flat-bottomed sterile black plate (Sigma-Aldrich, Saint Quentin Fallavier, France) that contained 100 μL of the SYBR Green I lysis buffer (2xSYBR Green, 20 mM Tris base pH 7.5, 5 mM EDTA, 0.008% w/v saponin, 0.08% w/v Triton X-100). Negative controls treated with solvent (typically DMSO or H2O) and positive controls (CQ and MQ) were added to each set of experiments. Plates were incubated for 1 h at room temperature and then read on a fluorescence plate reader (Tecan Trading AG, Männedorf, Switzerland) using excitation and emission wavelengths of 485 and 535 nm, respectively.

[5] = tested on: Plasmodium falciparum 3D7 strain; assay: In vitro antimalarial activity, SYBR Green I fluorescence-based method, Pf3D7; format: cell-based; details: for Eudysmic Ratio Pf3D7: ratio of IC50s of the enantiomer pair, eutomer configuration in parentheses; for IC50: Plasmodium falciparum, 3D7, SYBR Green I, 48 h incubation, strain with decreased susceptibility to MQ, 1a-b re-assayed here, mean ± SD of three experiments
From the text: as §2, §3

Compound | IC50 (β-hematin formation) | IC50 [4] | IC50 [5] | Inhibition (%) of β-hematin formation at 2 mM (β-hematin formation) | IC50 [1] | IC50 [2] | CC50 at 72 h [3] | Selectivity Index HepG2/3D7 (HepG2 cell line) | IC50 ratio between enantiomers (Plasmodium falciparum) | IC50 (PfD6) | IC50 (PfW2) | inhibition of in vitro hemozoin formation (hemozoin formation) | Eudysmic Ratio PfW2 [4] | Eudysmic Ratio Pf3D7 [5] | SI times higher than that of parental drug MQ (HepG2 cell line)
CCN(CC)CCCC(C)Nc1ccnc2cc(Cl)ccc12 (stereo not drawn) [Chloroquine, chloroquine, reference compound] | – | – | – | – | 0.199 ± 0.027 µM | 0.0759 ± 0.003 µM | – | – | – | – | – | up to 90% | – | – | –
OC(c1cc(C(F)(F)F)nc2c(C(F)(F)F)cccc12)C1CCCCN1 (stereo not drawn) [Mefloquine, mefloquine, reference compound] | – | – | – | 61.3 ± 8.5% | 0.0318 ± 0.001 µM | 0.0797 ± 0.0085 µM | 8.6 ± 2.6 µM | – | – | 0.0344 µM | 0.0039 µM | – | – | – | –
CCCCNC[C@@H](O)c1cc(C(F)(F)F)nc2c(C(F)(F)F)cccc12 [1a] | 1170 ± 320 µM | 0.005 ± 0.0003 µM | 0.0151 ± 0.0033 µM | 81.8 ± 8.4% | – | – | 25.6 ± 2.7 µM | 1695 | – | – | – | – | 1.46 (S) | 1 | 15–23 times
CCCCNC[C@H](O)c1cc(C(F)(F)F)nc2c(C(F)(F)F)cccc12 [1b] | 1310 ± 540 µM | 0.0073 ± 0.0009 µM | 0.0151 ± 0.0034 µM | 71.3 ± 10.3% | – | – | 37.8 ± 1.9 µM | 2503 | – | – | – | – | 1.46 (S) | 1 | 15–23 times

Now from value to compound, other results behind:

IC50 (β-hematin formation) | IC50 [4] | IC50 [5] | Compound | Inhibition (%) of β-hematin formation at 2 mM (β-hematin formation) | IC50 [1] | IC50 [2] | CC50 at 72 h [3] | Selectivity Index HepG2/3D7 (HepG2 cell line) | IC50 ratio between enantiomers (Plasmodium falciparum) | IC50 (PfD6) | IC50 (PfW2) | inhibition of in vitro hemozoin formation (hemozoin formation) | Eudysmic Ratio PfW2 [4] | Eudysmic Ratio Pf3D7 [5] | SI times higher than that of parental drug MQ (HepG2 cell line)
> 2000 µM | – | – | CCCCNC[C@@H](O)c1ccc(-c2ccc(C(F)(F)F)cc2)nc1C(F)(F)F [3a] | 48.3 ND ^c % | 0.132 ± 0.0103 µM | 0.479 ± 0.0382 µM | 11.6 ± 0.7 µM | 24 | – | – | – | – | – | – | –
> 2000 µM | – | – | OC(c1cc(-c2ccc(C(F)(F)F)cc2)nc(C(F)(F)F)c1)C1CCCCN1 (stereo not drawn) [Enpiroline, enpiroline, reference compound] | 20.3 ND ^c % | 0.0115 ± 0.0023 µM | 0.0216 ± 0.0014 µM | 4.4 ± 0.6 µM | 204 | 1.15–1.22 times | 0.0164 µM | 0.00285 µM | – | – | – | –
> 2000 µM | – | – | CCCCNC[C@H](O)c1ccc(-c2ccc(C(F)(F)F)cc2)nc1C(F)(F)F [3b] | 40.6 ± 28.3% | 0.523 ± 0.0958 µM | 1.38 ± 0.993 µM | > 100 µM | >72 | – | – | – | – | 4.0 (S) | 2.9 (S) | –
1770 ± 220 µM | – | – | CCCCNC[C@H](O)c1cc(-c2ccc(C(F)(F)F)cc2)nc(C(F)(F)F)c1 [2b] | 54.0 ± 22.7% | 0.01 ± 0.0007 µM | 0.0567 ± 0.0048 µM | 4 ± 0.7 µM | 70 | – | – | – | – | 1.1 (S) | 1.2 (S) | –
1450 ± 300 µM | – | – | CCCCNC[C@@H](O)c1cc(-c2ccc(C(F)(F)F)cc2)nc(C(F)(F)F)c1 [2a] | 73.5 ± 18.0% | 0.009 ± 0.0004 µM | 0.0458 ± 0.0023 µM | 4 ± 0.9 µM | 87 | – | – | – | – | 1.1 (S) | 1.2 (S) | –
